Measured values from patent publication US10675266B2, “Compounds and methods for treating autism spectrum disorders” (BIOCODEX, priority 2008, dated 2020).

Tests used:
[1] = test system: patients; test: Observation of autism symptoms in patients after initiation of treatment; type: in vivo, human
Source text: This observation can be confirmed by studies in animal models that mimic characteristic features of autism such as the models described by Moy S S et al, Behav. Brain Res. 176:4, 2007 and McFarlane H G et al, Genes, Brain and Behavior, 1601:1, 2007.

[2] = test system: SMEI patients; settings: cited from earlier work
[3] = test system: C57 mice; test: Social investigatory behaviour of C57 test mice towards a juvenile DBA/2J stimulus mouse; type: in vivo
Method: (§1) The purpose of this study was to examine the effects of stiripentol on the social behavioural in BALB/c mice compared to C57BL/6J (C57) inbred mice. The social investigatory behaviour of mice was measured by the amount of time that the “test” mouse (BALB/c and C57 mice) engaged in social contact with the “stimulus” mouse (juvenile DBA/2J mice strain).
(§2) All male mice (BALB/c, C57 and DBA/2J) were purchased from the Charles River breeding (Les Oncins-France). BALB/c and C57 mice were 8 weeks of age upon arrival at the laboratory. They were housed in temperature-controlled rooms (22±2° C.), separately by strain, with 5 mice per polycarbonate cage (type “S” cage: 265 mm L×160 mm W×140 mm H) and provided with food (A04-SAFE, France) and tap water ad libitum. Behavioral testing was conducted during the light period of a 12-h light:12-h dark cycle (lights on at 7 a.m.). The mice were used for behavioural testing starting 5-7 days after arrival at the laboratory whereas juvenile DBA/2J mice were used at 3-weeks of age and arrived at the laboratory 5 days prior testing. The experiments were conducted in accordance with the European Recommendations (directive 86/609/ECC) for the care and use of laboratory animals.
(§3) The general procedure was conducted according to the protocol described by Fishkin and Winslow (1997) Psychopharmacology (Berl) 132:335-341 with slight modifications.
Twenty-four hours prior to testing, BALB/c and C57 mice were individually housed in clear cage (type “S” cage). […]
The juvenile DBA/2J mouse was placed into BALB/c or C57 mouse cage for a 10-min observation period. […] For each contact, an observer, sitting about 1 m from the cage; recorded the latency to the first contact (or approach) (in sec) towards the “stimulus” mouse and the time (in sec) that the “test” mouse spent in social investigatory behaviour. […]
(§4) All data represent the mean±standard error of mean (S.E.M.). Treatment effects on mean latency to the first contact and on mean duration of social investigation were analyzed with two-way analysis of variance (ANOVA) with the strain and the treatment as factors. […]

[4] = doses 100, 200 and 300 mg/kg i.p.; from literature (Gasior 1999; Vincent 1991); cited from earlier work
[5] = test system: BALB/c mice; test: Social investigatory behaviour of BALB/c test mice towards a juvenile DBA/2J stimulus mouse; type: in vivo; settings: for duration of social contacts: 100, 200 and 300 mg/kg i.p. once daily for 5 days
Method: as §1, §2, §3
Twenty-four hours prior to testing, BALB/c and C57 mice were individually housed in clear cage (type “S” cage). Food and water remained freely available. Individual housing was provided firstly to permit resident male mice an opportunity to scent mark and habituate to their home cage and, secondly to heighten the motivation of “test” mice for social interaction. All the animals were allowed to acclimate to the test room (natural lighting) for at least 1 h prior to testing which was conducted between 9 a.m. and 3 p.m.
The juvenile DBA/2J mouse was placed into BALB/c or C57 mouse cage for a 10-min observation period. The DBA/2J mouse served as “stimulus” mouse for one BALB/c mouse and one C57BL mouse. For each contact, an observer, sitting about 1 m from the cage; recorded the latency to the first contact (or approach) (in sec) towards the “stimulus” mouse and the time (in sec) that the “test” mouse spent in social investigatory behaviour. Nosing, sniffing, pawing, grooming and close following of the “stimulus” mouse by the young adult mouse were considered to be signs of social investigation. […]
as §4

[6] = test system: animal models; settings: several animal models; cited from earlier work
[7] = test system: recombinant GABA-A receptors; settings: cited from earlier work

SMILES: CC(C)(C)C(O)/C=C/c1ccc2c(c1)OCO2 (racemic) [Stiripentol, 1-penten-3-ol, 1-(1,3-benzodioxol)-4,4-dimethyl]
- autism symptoms [1]: resolution of autism symptoms
- response rate ([2]; SMEI patients, 50 mg/kg/day): high response rate
- efficacy in double blind controlled clinical trials ([2]; two double blind controlled clinical trials (Chiron, Lancet 2000)): high efficacy
- sedative effects ([3]; 300 mg/kg i.p. once daily for 5 days): sedative effects in C57 mice began to appear
- duration of social contacts ([3]; 300 mg/kg i.p. once daily for 5 days, FIG. 2): significantly lowered
- latency to the first contact ([3]; up to 300 mg/kg i.p. once daily for 5 days, FIG. 1): without effects
- adverse motor effects [4]: devoid of any adverse motor effects
- latency to the first contact ([5]; 100, 200, 300 mg/kg i.p. once daily for 5 days, last dose 60 min before testing, FIG. 1): trend for decrease
- duration of social contacts ([5]; FIG. 2): increased duration of social contacts
- duration of social contacts ([5]; FIG. 2, listed as stiripentol): significantly increased
- sociability ([5]; sub-chronic treatment 100, 200 or 300 mg/kg i.p. x 5 days): enhanced the sociability
- anticonvulsant activity [6]: has shown anticonvulsant activity
- modulation of the GABA receptor ([7]; Fisher, Neuropharmacology 2009): positive allosteric modulator
- potentiation by subunit subtype ([7]; alpha subunit subtypes compared): alpha 3 subtype showed the greatest potentiation
